Data taken from patent US20250129012A1, “ANTI-INFLAMMATORY AND ANALGESIC COMPOUNDS AND USE THEREOF” (JIANGSU ATOM BIOSCIENCE AND PHARMACEUTICAL CO., LTD., priority 2021, published 2025).
Where two headings read alike, the source gives them in different places. Marks after values point to notes of the source that are not given here.

Experiments:
Type in all cases: in vivo, SD rats
[1] = system: IL-1β; assay: Inflammatory factor experiment B: IL-1β in knee synovial tissue (ELISA)
[2] = system: TNF-α; assay: Inflammatory factor experiment B: TNF-α in knee synovial tissue (ELISA)
[3] = system: TNF-α; assay: Inflammatory factor experiment A: TNF-α in gouty arthritis rats
Experimental: Compounds 14, 17 and 26 were prepared by grinding with 0.5% CMC-Na before administration and into a suspension for gavage at the corresponding concentration (0.06 mg/mL), with a dosage volume of 10 mL/kg. Colchicine, purchased from Sun Chemical Technology (Shanghai) Co., Ltd. with batch no. 49ETRRAS, and was prepared by grinding with 0.5% CMC-Na before administration and into a suspension for gavage at the corresponding concentration (0.06 mg/mL), with a dosage volume of 10 mL/kg.
The compounds in each group were prepared into a suspension of the corresponding concentration, and the dosage volume was 10 mL/kg.
The crystalline arthritis model was prepared by intra-articular injection of urate crystals (40 mg/mL in the left ankle joint of each rat). Different doses of the test compounds were given separately by gavage administration. The day of administration was defined as day 1 of the experiment, and the compounds were administered once a day for 10 consecutive days (pre-administration of the drug for 7 days prior to modeling, modeling on day 8, and continuation of the drug for 3 days). The experiment ended on day 10. […]

[4] = system: gouty arthritis rats (sodium urate, right ankle and knee joint cavities); assay: Pharmacodynamics experiment B on gouty arthritis rats: ankle swelling rate; conditions: for change in vivo at 0.6 mg/kg / change in vivo at 1.2 mg/kg: Rattus norvegicus, po, read-out: Swelling rate (ankle)
Procedure, shortened: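 Male SD rats dosed by gavage at 0.6 mg/kg (0.5% CMC-Na suspension) daily for 7 days before and 3 days after injection of 0.2 mL sodium urate solution into right ankle and knee joints. Ankle circumference measured before and 2-48 h after modeling; swelling rate = swelling degree/baseline ×100%, mean values.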

[5] = system: gouty arthritis rats (sodium urate, right ankle and knee joint cavities); assay: Pharmacodynamics experiment B on gouty arthritis rats: gait score; conditions: for Gait Score: mean
Procedure, shortened: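 Male SD rats (180-220 g) received test compounds by gavage as 0.5% CMC-Na suspensions, once daily for 7 days before modeling and for 3 days afterward. Gouty arthritis was induced by injecting 0.2 mL sodium urate solution into the right ankle and knee joint cavities. Gait was graded 0-3 using modified Coderre criteria, and group mean scores were compared with the model group by ANOVA-Dunnett T-test (P<0.05).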

[6] = system: IL-6; assay: Inflammatory factor experiment B: IL-6 in knee synovial tissue (ELISA)
[7] = compounds 0.6 mg/kg, colchicine 0.6 and 1.2 mg/kg

With `COc1cc2c(c(OC)c1OC)-c1ccc(OC)c(=O)cc1[C@@H](NC(C)=O)CC2` [colchicine, reference compound] the inhibition in vivo at 0.6 mg/kg ([1]; Rattus norvegicus, po, synovial tissue of knee joints, 48 h after modeling, dose 0.6 mg/kg, read-out: IL-1β percentage decrease %) was 74.2%, the inhibition in vivo at 1.2 mg/kg ([1]; Rattus norvegicus, po, synovial tissue of knee joints, 48 h after modeling, dose 1.2 mg/kg (high dose group), read-out: IL-1β percentage decrease %) was 63.1% and the “IL-1β level after modeling, in words” value [1, 7] was “reduced IL-1β in synovial tissue”. The inhibition in vivo at 0.6 mg/kg ([2]; Rattus norvegicus, po, synovial tissue of knee joints, 48 h after modeling, dose 0.6 mg/kg, read-out: TNF-α percentage decrease %) was 58%, the inhibition in vivo at 1.2 mg/kg ([2]; Rattus norvegicus, po, synovial tissue of knee joints, 48 h after modeling, dose 1.2 mg/kg (high dose group), read-out: TNF-α percentage decrease %) was 52.5% and the “TNF-α level after modeling, in words” value [2, 7] was “could reduce the TNF-αlevel”. The “TNF-α level after modeling, in words” value ([3]; 0.6 mg/kg) was “can reduce the TNF-α level”, the “Decreased TNF-α percentage %” value ([3]; synovial tissue of knee joints, dose 0.6 mg/kg gavage, day 10) was 93.73% and the change in vivo at 0.6 mg/kg ([4]; 2 h) was 10.5%. For the same compound, the change in vivo at 1.2 mg/kg ([4]; 2 h) was 8.97%, the change in vivo at 0.6 mg/kg ([4]; 4 h) was 15.7% and the change in vivo at 1.2 mg/kg ([4]; 4 h) was 14.9%. It also gave a change in vivo at 0.6 mg/kg ([4]; 8 h) of 20.6%, a change in vivo at 1.2 mg/kg ([4]; 8 h) of 17.2% and a change in vivo at 0.6 mg/kg ([4]; 10 h) of 23.4%. For the same compound, the change in vivo at 1.2 mg/kg ([4]; 10 h) was 19.4%, the change in vivo at 0.6 mg/kg ([4]; 24 h) was 24.4% and the change in vivo at 1.2 mg/kg ([4]; 24 h) was 19.8%. For the same compound, the change in vivo at 0.6 mg/kg ([4]; 48 h) was 12.1%, the change in vivo at 1.2 mg/kg ([4]; 48 h) was 9.29% and the “Ankle swelling rate versus model group, in words” value [4, 7] was “significantly (P<0.01) reduced”. For the same compound, the “Gait Score” value ([5]; 2 h, dose 0.6 mg/kg gavage) was 0, the “Gait Score” value ([5]; 2 h, dose 1.2 mg/kg gavage (high dose group)) was 0 and the “Gait Score” value ([5]; 4 h, dose 0.6 mg/kg gavage) was 0.02*. For the same compound, the “Gait Score” value ([5]; 4 h, dose 1.2 mg/kg gavage (high dose group)) was 0**, the “Gait Score” value ([5]; 8 h, dose 0.6 mg/kg gavage) was 0.24* and the “Gait Score” value ([5]; 8 h, dose 1.2 mg/kg gavage (high dose group)) was 0.1**. The “Gait Score” value ([5]; 10 h, dose 0.6 mg/kg gavage) was 0.16**, the “Gait Score” value ([5]; 10 h, dose 1.2 mg/kg gavage (high dose group)) was 0.18** and the “Gait Score” value ([5]; 24 h, dose 0.6 mg/kg gavage) was 0.02*. The “Gait Score” value ([5]; 24 h, dose 1.2 mg/kg gavage (high dose group)) was 0*, the “Gait Score” value ([5]; 48 h, dose 0.6 mg/kg gavage) was 0.02 and the “Gait Score” value ([5]; 48 h, dose 1.2 mg/kg gavage (high dose group)) was 0. For the same compound, the “Gait versus model group, in words” value [5, 7] was “significantly improved the gait of rats”, the inhibition in vivo at 0.6 mg/kg ([6]; Rattus norvegicus, po, synovial tissue of knee joints, 48 h after modeling, dose 0.6 mg/kg, read-out: IL-6 percentage decrease %) was 83.5% and the inhibition in vivo at 1.2 mg/kg ([6]; Rattus norvegicus, po, synovial tissue of knee joints, 48 h after modeling, dose 1.2 mg/kg (high dose group), read-out: IL-6 percentage decrease %) was 96.3%. The “IL-6 level after modeling, in words” value [6, 7] was “could reduce the IL-6 level”.
